Columns and labels:
[1] = test system: phosphorylated AKT Ser473 (pAKT S473), mTORC2 activity, PC3 cells; experiment: mTOR target engagement assay, immunofluorescent cell-based, pAKT S473 readout (mTORC2 activity); details: Homo sapiens, PC-3, PC3 cells, compound treatment ninety minutes at 37° C.
In short: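 After blocking, cells were stained overnight at 4 °C with anti-pAKT S473 antibody, then a fluorescent secondary; inhibition was read as reduced fluorescence intensity.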

[2] = test system: phosphorylated 4E-BP1 Thr37/46 (p4E-BP1 Thr37/46), mTORC1 activity, PC3 cells; experiment: mTOR target engagement assay, immunofluorescent cell-based, p4E-BP1 Thr37/46 readout (mTORC1 activity); details: Homo sapiens, PC-3, PC3 cells, compound treatment ninety minutes at 37° C.; read-out: p4E-BP1 Thr37/46 IC50
Protocol: The target engagement of mTOR kinase inhibitors was evaluated using an immunofluorescent cell-based assay. In this assay, inhibition of mTORC1 activity was measured by the reduction in the level of phosphorylated 4E-BP1^[…] (p4E-BP1 Thr37/46), and inhibition of mTORC2 activity was measured by the reduction of phosphorylated AKT^Ser473 (pAKT S473).
PC3 cells (prostate tumor cell-line that contains a mutation in the tumor suppressor PTEN, that promotes the phosphorylation and activation of AKT and 4E-BP1) were used in the immunofluorescence assay. PC3 cells were seeded on 384 well plates (black clear bottom, Matrix #4332) overnight. PC3 cells were then treated with 40 μl of the serially diluted test compounds (in 5% fetal bovine serum, F12 medium containing 0.25% DMSO) for ninety minutes at 37° C. The test compound solution was removed, and the plates were washed gently two times with 25 μl phosphate buffered saline (PBS). The cells were fixed by adding 25 μl of Prefer reagent (from Anatech LTD, Cat#414, a glyoxal fixative for fixing proteins within a cell) for sixty minutes followed by three washes with PBS. 5% Goat serum in PBS/0.3% Triton was used to block non-specific binding (60 minutes).
The primary antibodies targeting pAKT S473 and p4E-BP1 Thr37/46 were diluted into PBS/0.3% Triton and incubated with the cells overnight at 4° C. The antibodies targeting pAKTS473 (Cat#4085, Cell signaling) and p4E-BP1 Thr37/46 (Cat#2855, Cell signaling) were used at a 1:100 dilution. Plates were washed three times with PBS/0.1% Tween 20 before adding the secondary antibody at a 1:200 dilution. (goat anti-rabbit containing a fluorescent label, Alexa Fluor 488, Cat#A11008, Invitrogen) in PBS/0.3% Triton for 60 minutes.
Finally, the plates were washed three times with PBS/0.1% Tween 20 and the fluorescent intensity was read using an Analyst HT from Molecular Devices. The fluorescent intensity values from the serially diluted compound treatment group were analyzed using the Xlfit 4 program ([…]) (Formula 205: Y=Bottom+(Top-Bottom)/(1+(IC50/X)^Hillslope) to generate the IC50 value. Where Top is the maximum signal without Compound (+DMSO only) and Bottom represents maximum inhibition. Y is the fluorescence at some compound concentration. The control used to determine the fluorescent intensities for 100% pAKT S473 or 100% phosphorylated p4E-BP1 Thr37/46 were measured from untreated wells that contained only DMSO, instead of test compound.

SMILES | IC50 [1] [nM] | IC50 [2] [nM]
COCc1cc(-c2ccc(-c3cnn4c(N)c(C(C)=O)c([C@@H]5C[C@H]6CC[C@@H](C5)N6C(=O)CO)nc34)cn2)ccc1OC [Compound 1.1.44, 1-((1R,3s,5S)-3-(6-acetyl-7-amino-3-(6-(4-methoxy-3-(methoxymethyl)phenyl)pyridin-3-yl)pyrazolo[1,5-a]pyrimidin-5-yl)-8-azabicyclo[3.2.1]octan-8-yl)-2-hydroxyethanone] | 1 to 100 | 100 to 1000
COCc1cc(-c2ccc(-c3cnn4c(N)c(C(C)=O)c([C@@H]5C[C@H]6CC[C@@H](C5)N6C(=O)c5nnc[nH]5)nc34)cn2)ccc1OC [Compound 1.1.45, 1-(5-((1R,3s,5S)-8-(4H-1,2,4-triazole-3-carbonyl)-8-azabicyclo[3.2.1]octan-3-yl)-7-amino-3-(6-(4-methoxy-3-(methoxymethyl)phenyl)pyridin-3-yl)pyrazolo[1,5-a]pyrimidin-6-yl)ethanone] | 1 to 100 | 1 to 100
COc1ccc(-c2ccc(-c3cnn4c(N)c(C(C)=O)c([C@@H]5C[C@H]6CC[C@@H](C5)N6C(=O)c5nnc[nH]5)nc34)cn2)cc1 [Compound 1.1.46, 1-(5-((1R,3s,5S)-8-(4H-1,2,4-triazole-3-carbonyl)-8-azabicyclo[3.2.1]octan-3-yl)-7-amino-3-(6-(4-methoxyphenyl)pyridin-3-yl)pyrazolo[1,5-a]pyrimidin-6-yl)ethanone] | 1 to 100 | 1 to 100
COc1ccc(-c2ccc(-c3cnn4c(N)c(C(C)=O)c([C@@H]5C[C@H]6CC[C@@H](C5)N6C(=O)c5nnc[nH]5)nc34)cn2)c(F)c1 [Compound 1.1.47, 1-(5-((1R,3s,5S)-8-(4H-1,2,4-triazole-3-carbonyl)-8-azabicyclo[3.2.1]octan-3-yl)-7-amino-3-(6-(2-fluoro-4-methoxyphenyl)pyridin-3-yl)pyrazolo[1,5-a]pyrimidin-6-yl)ethanone] | 1 to 100 | 1 to 100
CC(=O)c1c([C@@H]2C[C@H]3CC[C@@H](C2)N3C(=O)C2(O)CC2)nc2c(-c3ccc(-c4ccccc4)nc3)cnn2c1N [Compound 1.1.48, 1-(7-amino-5-((1R,3s,5S)-8-(1-hydroxycyclopropanecarbonyl)-8-azabicyclo[3.2.1]octan-3-yl)-3-(6-phenylpyridin-3-yl)pyrazolo[1,5-a]pyrimidin-6-yl)ethanone] | 100 to 1000 | 100 to 1000
CC(=O)c1c([C@@H]2C[C@H]3CC[C@@H](C2)N3S(=O)(=O)O)nc2c(-c3ccc(-c4ccccc4)nc3)cnn2c1N [Compound 1.1.49, (1R,3s,5S)-3-(6-acetyl-7-amino-3-(6-phenylpyridin-3-yl)pyrazolo[1,5-a]pyrimidin-5-yl)-8-azabicyclo[3.2.1]octane-8-sulfonic acid] | 1000 to 10000 | > 10000
CC(=O)c1c([C@@H]2C[C@H]3CC[C@@H](C2)N3C(=O)c2cncc(O)c2)nc2c(-c3ccc(-c4ccccc4)nc3)cnn2c1N [Compound 1.1.50, 1-(7-amino-5-((1R,3s,5S)-8-(5-hydroxynicotinoyl)-8-azabicyclo[3.2.1]octan-3-yl)-3-(6-phenylpyridin-3-yl)pyrazolo[1,5-a]pyrimidin-6-yl)ethanone] | 100 to 1000 | 100 to 1000
CC(=O)c1c([C@@H]2C[C@H]3CC[C@@H](C2)N3C(=O)c2cnccc2O)nc2c(-c3ccc(-c4ccccc4)nc3)cnn2c1N [Compound 1.1.51, 1-(7-amino-5-((1R,3s,5S)-8-(4-hydroxynicotinoyl)-8-azabicyclo[3.2.1]octan-3-yl)-3-(6-phenylpyridin-3-yl)pyrazolo[1,5-a]pyrimidin-6-yl)ethanone] | 100 to 1000 | 100 to 1000
COCc1cnc(-c2ccc(-c3cnn4c(N)c(C(C)=O)c([C@@H]5C[C@H]6CC[C@@H](C5)N6C(=O)c5nnc[nH]5)nc34)cn2)s1 [Compound 1.1.52, 1-(5-((1R,3s,5S)-8-(4H-1,2,4-triazole-3-carbonyl)-8-azabicyclo[3.2.1]octan-3-yl)-7-amino-3-(6-(5-(methoxymethyl)thiazol-2-yl)pyridin-3-yl)pyrazolo[1,5-a]pyrimidin-6-yl)ethanone] | 100 to 1000 | 100 to 1000
COc1ccc(-c2ccc(-c3cnn4c(N)c(C(C)=O)c([C@H]5C[C@H]6CC[C@@H](C5)N6C(=O)c5nnc[nH]5)nc34)cn2)cc1F [Compound 1.1.54, 1-(5-((1R,3r,5S)-8-(4H-1,2,4-triazole-3-carbonyl)-8-azabicyclo[3.2.1]octan-3-yl)-7-amino-3-(6-(3-fluoro-4-methoxyphenyl)pyridin-3-yl)pyrazolo[1,5-a]pyrimidin-6-yl)ethanone] | 100 to 1000 | 100 to 1000
CC(=O)c1c([C@@H]2C[C@H]3CC[C@@H](C2)N3C(=O)c2nnc[nH]2)nc2c(-c3ccc(-c4ccn(C)n4)nc3)cnn2c1N [Compound 1.1.55, 1-(5-((1R,3s,5S)-8-(4H-1,2,4-triazole-3-carbonyl)-8-azabicyclo[3.2.1]octan-3-yl)-7-amino-3-(6-(1-methyl-1H-pyrazol-3-yl)pyridin-3-yl)pyrazolo[1,5-a]pyrimidin-6-yl)ethanone] | 1 to 100 | 1 to 100
CC(=O)c1c([C@@H]2C[C@H]3CC[C@@H](C2)N3C(=O)C(C)(CO)CO)nc2c(-c3ccc(-c4ccn(C)n4)nc3)cnn2c1N [Compound 1.1.56, 1-((1R,3s,5S)-3-(6-acetyl-7-amino-3-(6-(1-methyl-1H-pyrazol-3-yl)pyridin-3-yl)pyrazolo[1,5-a]pyrimidin-5-yl)-8-azabicyclo[3.2.1]octan-8-yl)-3-hydroxy-2-(hydroxymethyl)-2-methylpropan-1-one] | 100 to 1000 | 100 to 1000
COc1ccc(-c2ccc(-c3cnn4c(N)c(C(C)=O)c([C@@H]5C[C@H]6CC[C@@H](C5)N6C(=O)c5nnc[nH]5)nc34)cn2)cc1F [Compound 1.1.57, 1-(5-((1R,3s,5S)-8-(4H-1,2,4-triazole-3-carbonyl)-8-azabicyclo[3.2.1]octan-3-yl)-7-amino-3-(6-(3-fluoro-4-methoxyphenyl)pyridin-3-yl)pyrazolo[1,5-a]pyrimidin-6-yl)ethanone] | 1 to 100 | 1 to 100
COc1ccc(-c2ccc(-c3cnn4c(N)c(C(C)=O)c([C@@H]5C[C@H]6CC[C@@H](C5)N6C(=O)CO)nc34)cn2)cc1F [Compound 1.1.58, 1-((1R,3s,5S)-3-(6-acetyl-7-amino-3-(6-(3-fluoro-4-methoxyphenyl)pyridin-3-yl)pyrazolo[1,5-a]pyrimidin-5-yl)-8-azabicyclo[3.2.1]octan-8-yl)-2-hydroxyethanone] | 100 to 1000 | 100 to 1000
COc1ccc(-c2ccc(-c3cnn4c(N)c(C(C)=O)c([C@@H]5C[C@H]6CC[C@@H](C5)N6C(=O)C(C)(CO)CO)nc34)cn2)cc1F [Compound 1.1.59, 1-((1R,3s,5S)-3-(6-acetyl-7-amino-3-(6-(3-fluoro-4-methoxyphenyl)pyridin-3-yl)pyrazolo[1,5-a]pyrimidin-5-yl)-8-azabicyclo[3.2.1]octan-8-yl)-3-hydroxy-2-(hydroxymethyl)-2-methylpropan-1-one] | 1 to 100 | 1 to 100
CC(=O)c1c([C@@H]2C[C@H]3CC[C@@H](C2)N3C(=O)CO)nc2c(-c3ccc(-c4ccn(C)n4)nc3)cnn2c1N [Compound 1.1.60, 1-((1R,3s,5S)-3-(6-acetyl-7-amino-3-(6-(1-methyl-1H-pyrazol-3-yl)pyridin-3-yl)pyrazolo[1,5-a]pyrimidin-5-yl)-8-azabicyclo[3.2.1]octan-8-yl)-2-hydroxyethanone] | 100 to 1000 | 100 to 1000
CC(=O)c1c([C@@H]2C[C@H]3CC[C@@H](C2)N3C(=O)c2nnc[nH]2)nc2c(-c3ccc(-c4cccc(F)c4F)nc3)cnn2c1N [Compound 1.1.61, 1-(5-((1R,3s,5S)-8-(4H-1,2,4-triazole-3-carbonyl)-8-azabicyclo[3.2.l]octan-3-yl)-7-amino-3-(6-(2,3-difluorophenyl)pyridin-3-yl)pyrazolo[1,5-a]pyrimidin-6-yl)ethanone] | 1 to 100 | 1 to 100

— patent US9227971B2, “Pyrazolo[1,5-a]pyrimidine compounds as mTOR inhibitors” (Merck Sharp & Dohme Corp., priority 2010, dated 2016)
